# From patent US20100240754A1, “UNSATURATED FATTY AMINO ACID DERIVATIVES AND USE THEREOF IN DERMAL COSMETOLOGY” (Pierre Fabre Demo-Cosmetique, priority 2007, published 2010)
# Key:
# Format in all cases: cell-based, murine
# [1] = test system: fibroblast cell line L929; assay: In vitro assay of intracellular OASes (H2DCF-DA probe) after H2O2/iron oxidative stress; conditions: dose 400 μg/mL; L929, H2O2/iron stress
# From the text: We have set up a model for an in vitro study of oxidative stress induced by H2O2/iron, H2O2 which massively generates intracellular OASes by a chain reaction triggered by the oxidation of membrane lipids.
# This technique is based on the use of a fluorescent probe, 6-carboxy-2′, 7′ dichlorodihydrofluorescein diacetate, di(acetoxymethyl ester) (H2DCF-DA), which, once it has penetrated the cell, is deacetylated by the intracellular esterases then forming H2DCF. This product is oxidized by intracellular OASes into a highly fluorescent compound: 2′,7′-dichlorofluorescein, (DCF) (Suematsu M et al, 1996, Free Radicals Practical Approach, Punchard ed. P83-99).
# Cutaneous murine fibroblast cell line L929.
# The tested concentrations are non-cytotoxic concentrations. Cytoxicity was evaluated by the neutral red method, after incubation of the product for 3 hours.
# The reference anti-radical product is vitamin E or α-tocopherol (MW: 430.7) (SIGMA, ref.: T-1539).
# The mother solution is prepared at 400 mg/mL in DMSO and stored at −20° C. The pretreatment solution is prepared extemporaneously at 400 μg/mL in a culture medium without FCS.
# For evaluating unsaturated fatty amino acid derivatives, the dilutions are prepared in the culture medium extemporaneously for a range of concentrations of 0.02, 0.2, 2 and 20 ng/mL.
# The cells of the fibroblast line L929 are sown in microplates with 96 wells with a flat bottom in 100 μL of DMEM supplemented with 10% of FCS, and they are then incubated overnight at 37° C. in a humid atmosphere with 5% CO2.
# The dilutions of the products to be tested and of the reference molecule are conducted in culture mediums without FCS, and then deposited in 7 wells in an amount of 100 μL per well.
# The cells are then incubated for 3 hours at 37° C. in a humid atmosphere with 5% CO2.
# The cells are rinsed with PBS 1× in an amount of 100 μL per well. Next they are set to incubate for 30 min at 37° C. in a humid atmosphere with 5% CO2 and with 50 μL of H2DCF-DA probe at 5 μM.
# After 30 min in contact with the probe alone, the cells are incubated for 30 min at 37° C. in a humid atmosphere with […] with addition of 25 μL of H2O2 at 800 μM and 25 μL of 8 mM ferrous and ferric iron solution, in order to have final concentrations of 200 μM of H2O2 and 2 mM of ferrous and ferric iron.
# The cells are then rinsed with PBS 1× in an amount of 100 μL per well, and then incubated for 30 min at 37° C. in a humid atmosphere with 5% CO2 and with 100 μL of PBS 1×.
# These 1 h 30 minutes of incubation at 37° C. allow the intracellular esterases to deacetylate the H2DCF probe, oxidizable by intracellular OASes into DCF; a fluorescent compound, the formation of which is proportional to the amount of intracellular OASes.
# The fluorescence intensity is read with the cytofluorimeter at λexcitation=485 nm and λemission=530 nm. It reflects the amount of produced intracellular OASes.
# With the below ratio, it is possible to calculate for each concentration of tested product the % of protection against production of intracellular OASes (since the fluorescence intensity or FI expresses intracellular release of OASes).
# The values indicated in Table 3 are percentages of inhibition of intracellular OAS production following an exogenous oxidative stress, relatively to <> cells (100%) and to <> cells (0%).
# [2] = test system: fibroblast line L929; assay: Test of TBARS: lipid peroxidation after H2O2-Fe2+/Fe3+ stress; conditions: 400 μg/mL
# [3] = test system: B16-F10 line; assay: Synthesis of melanin, colorimetric assay, basal and after alpha MSH stimulation; conditions: Mus musculus, alpha MSH-stimulated B16-F10, read-out: inhibition of melanogenesis
# Protocol: 6.1) The modulating effect of unsaturated fatty amino-acid derivatives on melanogenesis was analyzed. For this, a measurement of the synthesis of melanin by a colorimetric assay is carried out on a cell line of murine melanomas: the B16-F10 line.
# The effect of the products is investigated in a basal situation and after stimulating melanogenesis by a MSH for determining the depigmenting power.
# The level of extracellular and intracellular melanin is then measured by spectrophotometry at a wave length of 405 nm according to the procedure (Meun, Y. J. et al.). The amount of pigment is determined by a standard range of melanin and by analysis on the Microwin software package (Berthold Biotechnologies). An assay of total proteins is conducted for samples of intracellular melanin by the BCA-Copper method at 540 nm. The standard range is produced with a standard protein, BSA (Bovine Albumin Serum).
smiles,measurement,setting,value
"Cc1c(C)c2c(c(C)c1O)CC[C@@](C)(CCC[C@H](C)CCC[C@H](C)CCCC(C)C)O2 [Vitamin E, α-tocopherol, reference compound]",percentage of inhibition of intracellular OAS production (protection),[1],31%
same,"protection against lipid peroxidation, in words",[2],very effectively protects cell membranes
"Oc1ccc(O)cc1 [hydroquinone, reference compound]",inhibition at 1 µg/mL,[3]; 1 μg/mL,~60%
"O=C1O[C@H]([C@@H](O)CO)C(O)=C1O [vitamin C, reference compound]",inhibition at 40 µg/mL,[3]; 40 μg/mL,~60%
